Reference: the METLIN SMRT retention time set (Domingo-Almenara et al. 2019)

Assay: gradient 5% acetonitrile 3 min, to 50% in 2 min, to 85% in 15 min, held 3 min, 100 µL/min
Conditions: column: Zorbax Extend-C18 2.1 x 50 mm; eluents: water / acetonitrile, 0.1% formic acid
Summary of the method: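 A Zorbax Extend-C18 column (2.1 × 50 mm, 1.8 μm) run at 100 μL/min with water and acetonitrile, both containing 0.1% formic acid, separated mixtures of ~100 pure standards. The HPLC was coupled to a quadrupole time-of-flight mass spectrometer operated in positive and negative ionization mode, with dead and dwell volumes of 40 μL and 900 μL. Each retention time was taken from a computationally picked adduct peak that was then manually inspected.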

Row | RP-LC retention time | Compound
1 | 1020 s | COc1ccccc1-n1ccn(Cc2nc(-c3ccc(C(C)(C)C)cc3)no2)c(=O)c1=O
2 | 781 s | Cc1cc(C)c(-c2noc(C)n2)c(NC(=O)c2ccc(C)c(F)c2)n1
3 | 670 s | COc1cc2c(Oc3ccc(NC(=O)C4(C(=O)Nc5ccc(F)cc5)CC4)cc3F)ccnc2cc1OCCCN1CCOCC1
4 | 597 s | Cc1ccc(-c2ccc(=O)n(Cc3nc(-c4ccc(OC(C)C)cc4)no3)n2)cc1
5 | 610 s | COC[C@@H]1CN(Cc2ccc3[nH]ccc3c2)C[C@H]1c1nc(C)no1
6 | 1180 s | Cc1ccc(N2CC(c3noc(-c4ccc(-c5ccccc5)cc4)n3)CC2=O)cc1 (stereo unspecified)
7 | 905 s | COC(=O)c1ccccc1NC(=O)CSc1cc(N2CCN(c3ccccc3OC)CC2)ncn1
8 | 927 s | CC(/C=C/c1cccc(Oc2ccc(F)cc2)c1)N(O)C(N)=O (stereo unspecified)
9 | 790 s | CCc1nnc(-c2ccc3ccn(CC(=O)NCc4cccs4)c3c2)o1
10 | 950 s | Cc1nc(-c2ccc3c(c2)CCN3C(=O)Cc2c[nH]c3ccccc23)cs1
11 | 1200 s | Cc1ccccc1-c1noc(Cn2cnc3c(cnn3-c3ccc(Br)cc3)c2=O)n1
12 | 844 s | O=C(NCc1cc(F)cc(F)c1)C1CCN(c2nnc(-c3ccccc3)o2)CC1
13 | 709 s | CCc1ccc(C2=C(C)C(N3CCCN(C(=O)c4ccncc4)CC3)=NS2(=O)=O)cc1
14 | 764 s | CCN1CCn2cc(S(=O)(=O)Nc3cc(Cl)ccc3OC)cc2C1=O
15 | 690 s | Cc1cc(Nc2cccc(C(C)O)c2)nc(-n2cc([N+](=O)[O-])cn2)n1 (stereo unspecified)
16 | 1070 s | O=C1COc2ccc(Cl)cc2N1Cc1nc(-c2ccc(F)cc2)no1
17 | 629 s | COc1ccc(NC(=O)Nc2c(-c3ccc(F)cc3)nc3ccccn23)cc1OC
18 | 1200 s | COc1ccc(N2CC(c3noc(-c4ccc(C(C)(C)C)cc4)n3)CC2=O)cc1 (stereo unspecified)
19 | 711 s | COc1ccc(CNC(=O)N2CCN(Cc3nc4ccc(Cl)cc4o3)CC2)cc1
20 | 805 s | C=CCn1ccc2c(OCC(=O)Nc3ccc4c(c3)OCO4)cccc2c1=O

The next lines start with the compound.

Row | Compound | RP-LC retention time
21 | NC(=O)CCC(C(=O)O)N1C(=O)C2C3CCC(C3)C2C1=O (stereo unspecified) | 638 s
22 | CCN1CCN(c2ncc(C(=O)OC)c3ccccc23)CC1 | 604 s
23 | CCOC(=O)CNC(=O)N1CCN(Cc2nc3cccnc3n2-c2ccccc2)CC1 | 585 s
24 | O=C(CN1CCN(Cc2ccccc2F)C1=O)N1CCN(c2ccccc2)CC1 | 778 s
25 | Cc1cc(Cl)ccc1NC(=O)CCc1c(C)nn(-c2cc(N(C)C)ncn2)c1C | 862 s
26 | CC(C)NC(=O)C1CCC(=O)N1C1CCN(C(=O)C2CCC2)CC1 (stereo unspecified) | 584 s
27 | CCOC(=O)N1CCC(NC(=O)c2cc3sc(Cl)cc3n2CC)CC1 | 985 s
28 | O=C(NCCOc1cc(N2CCCC2)ncn1)NCc1ccccc1 | 575 s
29 | O=C(NCc1cccs1)C1CCN(C(=O)c2ncn3c2COC(c2ccc(F)cc2)C3)CC1 (stereo unspecified) | 736 s
30 | O=C(Nc1ccc(F)cc1)OC1CCCC(NC(=O)c2ccc(Br)o2)C1 (stereo unspecified) | 853 s
31 | COC(=O)c1c(NC2CCCC2)c2cccc(Cl)c2[nH]c1=O | 830 s
32 | CC(C)(C)C(=O)N1CCC(C(=O)NCc2ccc3c(c2)OCO3)CC1 | 712 s
33 | O=C(COc1ccccc1-c1nnc(-c2ccccc2)o1)N1CCN(C(=O)c2ccco2)CC1 | 760 s
34 | CCN1C(=O)C(CC(=O)NCCCOC)Sc2ncccc21 (stereo unspecified) | 620 s
35 | Cc1[nH]c(C)c(S(=O)(=O)N2CCC(C(=O)Nc3ccc(Cl)cc3)CC2)c1C(=O)N1CCCC1 | 788 s
36 | Cc1cccc(N2CCN(C(=O)c3cn4c(n3)CCCC4)CC2)c1C | 690 s
